From ChEMBL document CHEMBL4033666, “Synthesis and mechanistic evaluation of novel N'-benzylidene-carbohydrazide-1H-pyrazolo[3,4-b]pyridine derivatives as non-anionic antiplatelet agents” (Eur J Med Chem, 2017)

Assays:
Platelet [1] = experiment: Antiplatelet activity in human platelet rich plasma assessed as inhibition of arachidonic acid-induced platelet aggregation at 100 uM preincubated for 2 mins followed by arachidonic acid addition by turbidimetric method relative to control; format: functional
Platelet [2] = experiment: Antiplatelet activity in human platelet rich plasma assessed as inhibition of ADP-induced platelet aggregation at 100 uM preincubated for 2 mins followed by ADP addition by turbidimetric method relative to control; format: cell-based
Platelet [3] = experiment: Antiplatelet activity in human platelet rich plasma assessed as inhibition of collagen-induced platelet aggregation at 100 uM preincubated for 2 mins followed by collagen addition by turbidimetric method relative to control; format: cell-based
Plasma [4] = experiment: Change in prothrombin time in human plasma at 100 uM incubated for 15 mins at room temperature and 2 mins at 37 degC in presence of calcium thromboplastin; format: ADME, cell-free
Platelet [5] = experiment: Antiplatelet activity in human platelet rich plasma assessed as inhibition of epinephrine-induced platelet aggregation at 100 uM preincubated for 2 mins followed by epinephrine addition by turbidimetric method relative to control; format: cell-based
Plasma [6] = experiment: Change in activated partial thromboplastin time in human plasma at 100 uM incubated for 15 mins at room temperature and 2 mins at 37 degC in presence of CaCl2; format: ADME, cell-free
[7] = Hemolytic activity against human erythrocytes after 3 hrs relative to control; format: ADME, cell-based, Erythrocyte; conditions: read-out: Activity

Compound	inhibition at 100 µM (Platelet [1])	inhibition at 100 µM (Platelet [2])	inhibition at 100 µM (Platelet [3])	Activity (Plasma [4])	inhibition at 100 µM (Platelet [5])	Activity (Plasma [6])	hemolysis at 3 h [7]
Cc1nn(-c2ccccc2)c2nc(C(F)(F)F)cc(C(=O)N/N=C/c3ccc(O)cc3)c12	10.4%	12.5%	13.3%	Non-Toxic	15.9%	Non-Toxic	99%
COc1ccc(/C=N/NC(=O)c2cc(C)nc3c2c(C)nn3-c2ccccc2)cc1	3.43%	2.9%	15%	Non-Toxic	8.4%	Non-Toxic	
Cc1cc(C(=O)N/N=C/c2ccc(C#N)cc2)c2c(C)nn(-c3ccccc3)c2n1	24.4%	33.6%	1.68%	Non-Toxic	0%	Non-Toxic	
CCOc1ccc(/C=N/NC(=O)c2cc(C)nc3c2c(C)nn3-c2ccccc2)cc1	1.26%	1.69%	0%	Non-Toxic	0%	Non-Toxic	
Cc1cc(C(=O)N/N=C/c2ccccc2)c2c(C)nn(-c3ccccc3)c2n1	3.96%	0%	9.6%	Non-Toxic	7%	Non-Toxic	
CCOc1ccc(/C=N/NC(=O)c2cc(C(F)(F)F)nc3c2c(C)nn3-c2ccccc2)cc1	1.26%	5.55%	2%	Non-Toxic	13.1%	Non-Toxic	30%
Cc1nn(-c2ccccc2)c2nc(C(F)(F)F)cc(C(=O)N/N=C/c3ccccc3)c12	0.27%	5.98%	0%	Non-Toxic	14.1%	Non-Toxic	
Cc1nn(-c2ccccc2)c2nc(C(F)(F)F)cc(C(=O)N/N=C/c3ccc([N+](=O)[O-])cc3)c12	0%	6.93%	0%	Non-Toxic	0%	Non-Toxic	
Cc1ccc(/C=N/NC(=O)c2cc(C(F)(F)F)nc3c2c(C)nn3-c2ccccc2)cc1	0.27%	0.27%	7.84%	Non-Toxic	0.71%	Non-Toxic	
